Biological target: T1, adenosine A2A receptor (A2AR) (Rattus norvegicus, UniProt P30543)
T1 construct: gene Adora2a; native full-length receptor in striatum membrane preparation of adult male Wistar rats
Test: [3H]-ZM241385 competition, rat striatum membranes
Assay type: binding
Conditions: 50 mM MgCl2 (medium I), 0.5 nM [3H]-ZM241385, pH 7.4, 25 °C, 60 min; parentheses = 95% CI
Description: [3H]-ZM241385 competition, rat striatum membranes on adenosine A2A receptor (A2AR)

T1 sequence (P30543 whole entry): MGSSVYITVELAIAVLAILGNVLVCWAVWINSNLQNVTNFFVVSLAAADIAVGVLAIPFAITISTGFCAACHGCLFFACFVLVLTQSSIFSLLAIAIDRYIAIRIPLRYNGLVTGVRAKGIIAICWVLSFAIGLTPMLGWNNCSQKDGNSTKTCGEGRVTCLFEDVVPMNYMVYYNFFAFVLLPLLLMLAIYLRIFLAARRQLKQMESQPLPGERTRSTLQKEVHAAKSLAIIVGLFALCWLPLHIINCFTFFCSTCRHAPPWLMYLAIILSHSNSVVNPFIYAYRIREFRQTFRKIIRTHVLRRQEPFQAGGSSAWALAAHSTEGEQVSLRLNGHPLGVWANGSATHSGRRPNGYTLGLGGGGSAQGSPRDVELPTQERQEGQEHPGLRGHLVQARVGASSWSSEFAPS

Row | IC50 [µM] | SMILES
1 | 38.9 | O=C(N/N=C/c1cccs1)c1ccc2c(c1)OCO2 [compound 1, LASSBio-294]
2 | 47.9 | CN(/N=C/c1cccs1)C(=O)c1ccc2c(c1)OCO2 [compound 2, LASSBio-785]
3 | 20.9 | O=C(N/N=C/c1ccc[se]1)c1ccc2c(c1)OCO2 [compound 3, N’-(Selenophen-2-yl-methylene)benzo[d][1,3] dioxole-5-carbohydrazide]
4 | 10.8 | COc1cccc(C(=O)N/N=C/c2cccs2)c1 [compound 4, 3-Methoxy-N’-(thiophen-2-yl-methylene)benzohydrazide]
5 | 10.4 | COc1cccc(C(=O)N/N=C/c2ccc[se]2)c1 [compound 5, 3-Methoxy-N’-(selenophen-2-yl-methylene)benzohydrazide]
6 | 52.9 | CN(/N=C/c1ccc[se]1)C(=O)c1ccc2c(c1)OCO2 [compound 6, N-Methyl-N’-(selenophen-2-yl-methylene) benzo[d][1,3]dioxole-5-carbohydrazide]
7 | 22.3 | COc1cccc(C(=O)N(C)/N=C/c2cccs2)c1 [compound 7, 3-Methoxy-N-methyl-N’-(thiophen-2-yl-methylene)benzohydrazide]
8 | 15.4 | COc1cccc(C(=O)N(C)/N=C/c2ccc[se]2)c1 [compound 8, LASSBio-2199]
9 | 27.1 | COc1cccc(C=NNC(=O)c2cccs2)c1 [compound 13, N’-(3-Methoxybenzylidene)thiophene-2-carbo-hydrazide]
10 | 16.6 | COc1cccc(C=NNC(=O)c2ccc[se]2)c1 [compound 14, N’-(3-Methoxybenzylidene)selenophene-2-ca-rbohydrazide]
